Read-outs that look alike come from different tables or passages of the source.
Tests used:
[1] = In vitro drug release from TPU matrix delivery system prototypes; assay type: physicochemical; details: for cumulative release of loaded drug: after 30 days
Description: Films were cut into disks with a 1-inch diameter die punch; disks were stacked and placed between two pieces of aluminum foil and compressed under a metal weight on a 120° C. dry bath. Thickness was monitored frequently until it measured 3.5 mm with digital calipers calibrated to 0.01 mm. Devices were cut from thick films using a custom rectangular 3.5 mm×13.3 mm die punch.
(§1) All release tests were performed in sink conditions in PBS supplemented with 2% w/v Cremophor® A25/Emulgin® B25. For the first 7-days of drug release testing, 1 mL samples were taken daily; following 7 days, samples were taken every 3-4 days. At all timepoints, bottles were drained and replaced with fresh media following sampling.
A qualification for selecting an optimal TPU for DPV delivery in this application is the time to achieve 50% cumulative release of drug. This is based on the standard use time of hormonal IUDs, which in practice are removed once about half of the initial load of drug is depleted from the device. Here, this standard was used as a benchmark to evaluate the sustained release properties of candidate delivery system designs. […] The fit of first-order release kinetics to the data was assessed. Equations 1 and 2 describe drug release from a system where dissolution is dependent on a concentration gradient.
Where k is the first order rate constant, Ct is the concentration of drug in solution at time t and C0 is the initial concentration of drug.
Where Q is the amount of drug release in time t and kh is the Higuchi release constant.
Based on the best-fit square-root of time relation, T50% was calculated for each TPU. […] Korsmeyer and Peppas provided a method for understanding drug release mechanisms of swelling and non-swelling polymeric systems, given by Equation 4: […]
Where Mt/M∝ is the fraction of drug released at time t, K is the rate constant, and n is the release exponent.

[2] = Post-use assay of residual ARVs in removed IUDs (triple study); assay type: in vivo; details: for Average dose / Total DPV released: 28 days
Source text: FIGS. 15A-15C are graphs showing post-use assays of residual anti-retroviral pharmaceutical compositions in removed intrauterine devices, in accordance with the present technology. […]

[3] = Triple active compound (RAL, MVC, ETR) intrauterine system in vivo study, tissue and secretion concentrations; details: for concentration at 28 days: 28 days after insertion
Source text: Described herein is a study conducted on an intrauterine system having a plurality of delivery systems (such as shown in FIGS. 1D and 1E). This study included three matrix delivery systems. The first delivery system included raltegravir (RAL), the second delivery system included etravirine (ETR), and the third delivery system included maraviroc (MVC). The intrauterine system was implanted and retained in the uterus of a patient for 28 days.
Multiple samples were taken before, during, and after insertion of the intrauterine system. Plasma samples were taken an hour before insertion, at insertion, 24 hours after insertion, 48 hours after insertion, 72 hours after insertion, 7 days after insertion, 14 days after insertion, 21 days after insertion, and 28 days after insertion (when the intrauterine system was removed). Vaginal swabs were taken an hour before insertion, at 7 days after insertion, 14 days after insertion, 21 days after insertion, and 28 days after insertion. Vaginal biopsies were taken an hour before insertion, 7 days after insertion, and 28 days after insertion. Endometrial and cervical biopsies were taken an hour before insertion and 28 days after insertion. Histology was also performed an hour before insertion, and consistent visual inspection was done throughout for safety.

[4] = In vitro drug release from core-sheath reservoir delivery system prototypes; assay type: physicochemical; details: 6 core-sheath reservoir prototypes, core TPU loaded at 1 wt %, three sheath polymers, 100 and 200 μm sheath thickness
Description: Reservoir delivery system prototypes were prepared using a heated coextrusion process. Briefly, core polymer (PY-PT43DE20) was melted and homogenized with the appropriate mass of dapivirine to achieve 1 wt % and 30 wt % core polymer loading. […] The inner crosshead diameter was varied mid-extrusion to generate devices with sheath thicknesses ranging from 100-200 μm while retaining a constant outer diameter. Material was cut to the desired length per device (13.33 mm) and in-spec devices were identified based on sheath thickness using brightfield microscopy. Devices were incubated for two weeks at 40° C. to equilibrate drug in the core and sheath compartments.
as §1, with “sampling. For reservoir delivery system prototypes, three replicates of each formulation were end capped and one device was tested with no end cap to confirm the integrity of the end cap in preventing uncontrolled diffusion form the exposed core.” for “sampling.”
Both polyether sheath reservoirs (R1 & R2) released DPV faster than polycarbonate sheath reservoirs (R3 & R4). […]

[5] = 1 wt % loading, TPU2 matrix, from best-fit release model
[6] = 1 wt % loading, TPU3 matrix, from best-fit release model
[7] = 1 wt % loading, TPU4 matrix, from best-fit release model
[8] = 1 wt %, TPU4 matrix, total by 30 days
[9] = 16.6 wt % loading, TPU4 matrix, from best-fit release model
[10] = 16.6 wt %, TPU4 matrix, final rate at 30 days, per each ⅓ segment of the device
[11] = 20 wt % matrix, hydrophobic and crystalline TPU, after 20 days

Structure (SMILES)	T50% [2] [days]	Average dose [2] [µg/day]	Total DPV released [2] [mg]	Actual T50% ([1]; 1 wt % loading, TPU2 matrix) [days]	First-Order: k ([1]; 1 wt % loading, TPU2 matrix)	Higuchi: kH ([1]; 1 wt % loading, TPU2 matrix)	Predicted T50% [1, 5] [days]	Actual T50% ([1]; 1 wt % loading, TPU3 matrix) [days]	First-Order: k ([1]; 1 wt % loading, TPU3 matrix)	Higuchi: kH ([1]; 1 wt % loading, TPU3 matrix)	Korsmeyer-Peppas Constant: n ([1]; 1 wt % loading, TPU3 matrix)	Predicted T50% [1, 6] [days]	First-Order: k ([1]; 1 wt % loading, TPU4 matrix)	Higuchi: kH ([1]; 1 wt % loading, TPU4 matrix)	Korsmeyer-Peppas Constant: n ([1]; 1 wt % loading, TPU4 matrix)	Predicted T50% [1, 7] [days]	cumulative release [1, 8] [%]	First-Order: k ([1]; 16.6 wt % loading, TPU4 matrix)	Higuchi: kH ([1]; 16.6 wt % loading, TPU4 matrix)	Korsmeyer-Peppas Constant: n ([1]; 16.6 wt % loading, TPU4 matrix)	also measured
Nc1nc2c(ncn2COCCO)c(=O)[nH]1 [ACV, acyclovir]																					minimum release rate ([1]; 20 wt % in TPU4 matrix, 15 days in vitro dissolution): 59 µg/day; cumulative release ([1]; 20 wt % in TPU4 matrix, after 15 days): 18%; Predicted T50% ([1]; 20 wt % in TPU4 matrix, best-fit in vitro release model): 156 days; maximum release ([1]; High saturation matrixes): 1112 micrograms per day; minimum release ([1]; High saturation matrixes): 109 micrograms per day
Cc1cc(C#N)cc(C)c1Oc1nc(Nc2ccc(C#N)cc2)nc(N)c1Br [ETR, etravirine]	300	15.24	0.43	13	0.002, h^−1	0.026, %/h^1/2	15.5	13	0.002, h^−1	0.030, %/h^1/2	0.585,	12	0.0004, h^−1	0.011, %/h^1/2	0.535,	90	27.70	0.0001, h^−1	0.003, %/h^1/2	0.599,	concentration at 28 days ([3]; female, human, endometrium, other: intrauterine (implanted intrauterine system), read-out: tissue concentration, Endometrium): 434 ng/mL; Mean concentration in vaginal secretions ([3]; in vivo): 344.30 ng/mL; Korsmeyer-Peppas Constant: n ([1]; 1 wt % loading, TPU2 matrix): 0.484,; Predicted T50% [1, 9]: 857 days; cumulative release of loaded drug ([1]; 16.6 wt %, TPU4 matrix): 8.5%; release rate [1, 10]: ~14 µg/day
Cc1nc(N(C)C(=O)Cc2ccc(-c3ccccn3)cc2)sc1S(N)(=O)=O [PTV, pritelivir]																					daily release [4]: 1 to 40 µg/day; time for half of the original dose to release ([1]; 20 wt % matrix, Higuchi release kinetic analysis): approximately 500 days; cumulative release [1, 11]: approximately 9%; release rate [1, 11]: 30 µg/day; duration of use of the device ([1]; matrix device loaded with 20-30 mg of PTV, tested in vitro for 480 hours): 3-4 years
Cc1nnc(C(=O)NC(C)(C)c2nc(C(=O)NCc3ccc(F)cc3)c(O)c(=O)n2C)o1 [RAL, raltegravir]	101	46.31	1.30	<1	0.016, h^−1	0.052, %/h^1/2	2	1	0.004, h^−1	0.023, %/h^1/2	0.201,	7	0.0004, h^−1	0.010, %/h^1/2	0.333,	109	31.71	0.0002, h^−1	0.006, %/h^1/2	0.455,	concentration at 7 days ([3]; female, human, in vivo, 7 days after insertion, read-out: tissue concentration, Vagina): 194 ng/mL; concentration at 28 days ([3]; female, human, in vivo, read-out: tissue concentration, Cervix): 237 ng/mL; concentration at 28 days ([3]; female, human, in vivo, read-out: tissue concentration, Endometrium): 237 ng/mL; concentration at 28 days ([3]; female, human, in vivo, read-out: tissue concentration, Rectum): 39.9 ng/mL; concentration at 28 days ([3]; female, human, in vivo, read-out: tissue concentration, Vagina): 253 ng/mL; time to reach 100% release ([1]; 1 wt %, TPU2 matrix): 7 days; cumulative release of encapsulated drug ([1]; 1 wt %, TPU2 matrix, first 24 hours): approximately 50%; cumulative release of encapsulated drug ([1]; 1 wt %, TPU3 matrix, by 30 days / one month): 100%; cumulative release of encapsulated drug ([1]; 1 wt %, TPU3 matrix, first 24 hours): approximately 50%; Predicted T50% [1, 9]: 251 days; cumulative release of loaded drug ([1]; 16.6 wt %, TPU4 matrix): approximately 18%; release rate [1, 10]: around 22 μg/day; First-Order: k ([1]; 30 wt % loading, TPU4 matrix): 0.0002, h^−1; Higuchi: kH ([1]; 30 wt % loading, TPU4 matrix): 0.005, %/h^1/2; Predicted T50% ([1]; 30 wt % loading, TPU4 matrix, from best-fit release model): 363 days; cumulative release of encapsulated drug ([1]; 30 wt %, TPU4 matrix, at 30 days): approximately 17%; release rate ([1]; 30 wt %, TPU4 matrix, at study terminus (30 days), per each ⅓ segment of the device): 41.13 µg/day
